In patent US20240124408A1 (Sanofi, priority 2020, published 2024) one finds EC50 data, which are given here for 25 molecules.

Test [1] addresses T1, pig TRPM8 (Sus scrofa, UniProt F1SM15).
T1 construct: expressed in transfected cells; host or cells: CHO (pcDNA5/FRT/TO vector; hygromycin B and blasticidin selection)
In words: In vitro pig TRPM8 fluorescence calcium flux assay (recombinant CHO cells, Fluo4-AM, FDSS6000). It counts as cell-based. The following applies: recombinant CHO cells expressing pig TRPM8; menthol-related EC50, normalized to 100 μM menthol. As to the method: (§1) In Vitro Pig and Human TRPM8 Fluorescence Calcium Flux Assays
(§2) For functional expression of TRPM8, the full-length cDNA encoding human (NM_024080) and pig (XM_001927892.1) TRPM8 sequences were subcloned into p658 and pcDNA5/FRT/TO mammalian expression vectors, respectively. Engineered recombinant CHO cell lines expressing human or pig TRPM8 were generated. Culture media was Ham-F12 with 10% FCS for both lines, and for the pig cell line only 400 μg/ml hygromycin B and 30 μg/mL blasticidin were added as selection antibiotics (all reagents were obtained from Invitrogen, Fisher Scientific). Cells were grown in culture flasks up to 80% confluence where they were harvested using accutase (Sigma, MO, USA) to detach the cells by enzymatic dissociation and either seeded directly into assay plates or cryopreserved for future use.
(§3) For calcium flux assays, cells were plated into clear base poly-D-lysine coated 384-well plates (BD Biosciences, NJ USA) at a density of 15,000 cells per well in appropriate culture medium and grown overnight. The following day, all medium was removed then the cells were incubated with 2 μM of Fluo4-AM Dye (Molecular Probes) prepared in complete HBSS assay buffer containing 20 mM HEPES, 0.1% BSA, and 2.5 mM probenecid at room temperature for one hour. Following incubation, plates were inserted into a FDSS6000 instrument (Hamamatsu, Photonics, Japan) instrument, where cells were challenged with compounds of the formula (at varying concentrations) and intracellular calcium was measured kinetically for 3 min after addition.
(§4) This protocol allowed the determination of an EC50 value, from the sixteen-point dose response data, for each compound of the formula tested. Maximal fluorescence intensity achieved upon addition of 100 μM menthol (stock solution prepared in ethanol from solid, Sigma-Aldrich) was exported from the FDSS and further analyzed using IDBS XLFit 5. Data were normalized to the average 100 μM menthol response (maximum control wells) included in each plate. The dose response curves from the average of wells for each data point were analyzed by using nonlinear regression of sigmoidal dose response (formula 205). Finally, the (menthol-related) EC50 values (Half maximal effective concentration) were calculated with the best-fit dose curve determined by IDBS XLFit 5 software.
(A change in cytosolic calcium serves as a functional read-out for many receptors and channels.)

The target of test [2] is T2, human TRPM8 (Homo sapiens, UniProt Q7Z2W7).
T2 construct: expressed in transfected cells; host or cells: CHO (p658 mammalian expression vector)
In words: In vitro human TRPM8 fluorescence calcium flux assay (recombinant CHO cells, Fluo4-AM, FDSS6000). In kind it is cell-based. The conditions noted are these: recombinant CHO cells expressing human TRPM8; menthol-related EC50, normalized to 100 μM menthol. As to the method: as §1, §2, §3, §4

T2 sequence (Q7Z2W7 whole entry): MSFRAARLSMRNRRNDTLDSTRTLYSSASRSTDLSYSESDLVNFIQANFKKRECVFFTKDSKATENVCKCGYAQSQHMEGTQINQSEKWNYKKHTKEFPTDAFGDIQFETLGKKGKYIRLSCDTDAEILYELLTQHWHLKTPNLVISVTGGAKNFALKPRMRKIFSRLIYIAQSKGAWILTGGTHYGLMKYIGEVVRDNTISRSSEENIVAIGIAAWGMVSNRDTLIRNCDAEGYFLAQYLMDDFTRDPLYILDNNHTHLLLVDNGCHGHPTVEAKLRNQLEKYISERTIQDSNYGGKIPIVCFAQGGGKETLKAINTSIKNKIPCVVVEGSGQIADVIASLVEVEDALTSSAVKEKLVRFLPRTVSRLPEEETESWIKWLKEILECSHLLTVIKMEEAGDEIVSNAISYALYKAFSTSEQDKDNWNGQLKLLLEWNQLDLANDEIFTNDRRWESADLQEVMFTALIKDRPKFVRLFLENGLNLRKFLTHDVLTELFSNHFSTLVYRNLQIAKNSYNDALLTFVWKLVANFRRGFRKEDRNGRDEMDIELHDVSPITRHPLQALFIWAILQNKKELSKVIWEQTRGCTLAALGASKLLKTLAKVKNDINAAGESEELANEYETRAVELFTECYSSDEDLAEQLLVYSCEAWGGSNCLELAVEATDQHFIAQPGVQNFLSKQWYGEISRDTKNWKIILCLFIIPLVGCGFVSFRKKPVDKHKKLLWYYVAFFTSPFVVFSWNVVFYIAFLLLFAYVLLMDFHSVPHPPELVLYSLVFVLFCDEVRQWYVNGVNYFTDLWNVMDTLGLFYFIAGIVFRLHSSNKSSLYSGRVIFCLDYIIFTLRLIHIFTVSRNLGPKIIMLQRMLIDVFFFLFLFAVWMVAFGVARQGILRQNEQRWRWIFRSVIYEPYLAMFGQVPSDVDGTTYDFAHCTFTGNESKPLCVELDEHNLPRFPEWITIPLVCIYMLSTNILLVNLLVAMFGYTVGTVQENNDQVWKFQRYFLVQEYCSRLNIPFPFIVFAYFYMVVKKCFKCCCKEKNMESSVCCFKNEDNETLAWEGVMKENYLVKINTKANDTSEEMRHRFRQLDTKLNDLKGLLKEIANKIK
T1 sequence (F1SM15 1-1104): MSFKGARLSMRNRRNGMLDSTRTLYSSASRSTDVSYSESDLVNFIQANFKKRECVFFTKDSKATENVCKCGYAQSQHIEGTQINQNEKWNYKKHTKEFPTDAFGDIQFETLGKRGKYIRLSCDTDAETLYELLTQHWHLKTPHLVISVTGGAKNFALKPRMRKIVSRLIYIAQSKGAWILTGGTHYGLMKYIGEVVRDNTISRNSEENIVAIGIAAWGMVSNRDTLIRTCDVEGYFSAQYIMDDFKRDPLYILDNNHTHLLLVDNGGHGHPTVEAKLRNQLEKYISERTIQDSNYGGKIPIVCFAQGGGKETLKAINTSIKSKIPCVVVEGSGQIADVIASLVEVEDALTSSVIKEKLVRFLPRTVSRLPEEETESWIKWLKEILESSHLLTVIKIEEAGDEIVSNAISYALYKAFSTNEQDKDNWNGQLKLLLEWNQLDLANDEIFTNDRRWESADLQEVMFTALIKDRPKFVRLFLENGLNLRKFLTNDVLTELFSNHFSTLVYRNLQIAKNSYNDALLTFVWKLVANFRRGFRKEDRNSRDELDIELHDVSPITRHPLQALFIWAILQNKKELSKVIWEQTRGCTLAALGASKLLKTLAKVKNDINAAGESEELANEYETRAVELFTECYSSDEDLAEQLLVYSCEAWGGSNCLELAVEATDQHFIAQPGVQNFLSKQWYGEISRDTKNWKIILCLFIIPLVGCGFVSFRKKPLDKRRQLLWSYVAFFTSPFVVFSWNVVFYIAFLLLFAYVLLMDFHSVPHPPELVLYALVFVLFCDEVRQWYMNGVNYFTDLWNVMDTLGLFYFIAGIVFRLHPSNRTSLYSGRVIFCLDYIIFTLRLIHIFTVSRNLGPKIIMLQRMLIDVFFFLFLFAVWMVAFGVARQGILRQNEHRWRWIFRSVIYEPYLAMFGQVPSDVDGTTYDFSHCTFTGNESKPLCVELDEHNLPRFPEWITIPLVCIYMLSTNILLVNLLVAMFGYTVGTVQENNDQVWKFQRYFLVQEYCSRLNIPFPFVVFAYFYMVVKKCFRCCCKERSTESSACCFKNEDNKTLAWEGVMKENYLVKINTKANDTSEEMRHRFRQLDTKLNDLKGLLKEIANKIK

For orientation: EC50 means the concentration giving half of the maximal effect. For `CC(C)[C@@H]1CC[C@@H](C)C[C@@]1(O)C(=O)NCC1OC(=O)c2ccccc21` (mixture of isomers) [Example 18, (1S,2S,5R)-1-hydroxy-2-isopropyl-5-methyl-N-(((1RS)-3-oxo-1,3-dihydroisobenzofuran-1-yl)methyl) cyclohexane-1-carboxamide], the EC50 in test [1] was found to be 0.242 µM; in test [2], 0.757 µM.
The corresponding values for `CC(=O)NCCOc1ccccc1CCNC(=O)[C@]1(O)C[C@H](C)CC[C@H]1C(C)C` [Example 84, (1S,2S,5R)—N-(2-(2-acetamidoethoxy)phenethyl)-1-hydroxy-2-isopropyl-5-methylcyclohexane-1-carboxamide] are 0.141 µM and 0.143 µM.
The like results for `Cc1cccc(C(O)CNC(=O)[C@]2(O)C[C@H](C)CC[C@H]2C(C)C)c1` (stereo partly drawn) [Example 12, (1S,2S,5R)-1-hydroxy-N-(2-hydroxy-2-(m-tolyl)ethyl)-2-isopropyl-5-methylcyclohexane-1-carboxamide] were, in that order, 0.002 µM and 0.003 µM.
The corresponding values for `CC(C)[C@@H]1CC[C@@H](C)C[C@@]1(O)C(=O)NCC1(c2cccc(COC3CCCCO3)c2)COC1` (stereo partly drawn) [Example 101, (1S,2S,5R)-1-hydroxy-2-isopropyl-5-methyl-N-((3-(3-(((tetrahydro-2H-pyran-2-yl)oxy)methyl)phenyl)oxetan-3-yl)methyl)cyclohexane-1-carboxamide] are 0.174 µM and 0.376 µM.
On to `CC(C)[C@@H]1CC[C@@H](C)C[C@@]1(O)C(=O)NCC(=O)c1cc(F)cc(F)c1` [Example 138, (1S,2S,5R)-N-[2-(3,5-difluorophenyl)-2-oxo-ethyl]-1-hydroxy-2-isopropyl-5-methyl-cyclohexanecarboxamide], for which the results for the EC50 in test [1] and in test [2] were 0.0017 µM and 0.0038 µM, respectively.
The corresponding values for `CC(C)[C@@H]1CC[C@@H](C)C[C@@]1(O)C(=O)NCCc1ccc(S(N)(=O)=O)cc1` [Example 118, (1S,2S,5R)-1-hydroxy-2-isopropyl-5-methyl-N-[2-(4-sulfamoylphenyl)ethyl]cyclohexanecarboxamide] are 0.264 µM and 0.557 µM.
The corresponding values for `CC(C)[C@@H]1CC[C@@H](C)C[C@@]1(O)C(=O)NCCc1cc(O)ccc1Br` [Example 172, (1S,2S,5R)-N-[2-(2-bromo-5-hydroxy-phenyl)ethyl]-1-hydroxy-2-isopropyl-5-methyl-cyclohexanecarboxamide] are 0.019 µM and 0.0097 µM.
The corresponding values for `CC(C)[C@@H]1CC[C@@H](C)C[C@@]1(O)C(=O)NCCc1cccc(CCC(=O)O)c1` [Example 87, 3-(3-(2-((1S,2S,5R)-1-hydroxy-2-isopropyl-5-methylcyclohexane-1-carboxamido)ethyl)phenyl)propanoic acid] are 0.259 µM and 0.982 µM.
With `Cc1ccccc1CCNC(=O)[C@]1(O)C[C@H](C)CC[C@H]1C(C)C` [Example 59, (1S,2S,5R)-1-hydroxy-2-isopropyl-5-methyl-N-(2-methylphenethyl)cyclohexane-1-carboxamide], the EC50 in test [1] amounted to 0.0043 µM; in test [2] it was 0.0062 µM.
`Cc1oc(=O)oc1COC(=O)c1cccc(CCNC(=O)[C@]2(O)C[C@H](C)CC[C@H]2C(C)C)c1` [Example 29, (5-methyl-2-oxo-1,3-dioxol-4-yl)methyl 3-(2-((1S,2S,5R)-1-hydroxy-2-isopropyl-5-methylcyclohexane-1-carboxamido)ethy) benzoate]: the values for the EC50 in test [1] and in test [2] were 0.221 µM and 0.211 µM, respectively.
Consider `CC(C)[C@@H]1CC[C@@H](C)C[C@@]1(O)C(=O)NCC1(O)CCc2c(Cl)cccc21` (stereo partly drawn) [Example 144, (1S,2S,5R)-N-[(4-chloro-1-hydroxy-indan-1-yl)methyl]-1-hydroxy-2-isopropyl-5-methyl-cyclohexanecarboxamide], for which the EC50 is 0.0018 µM in test [1] and 0.0048 µM in test [2].
For `COc1cccc(CCNC(=O)[C@]2(O)C[C@H](C)CC[C@H]2C(C)C)c1OC` [Example 115, (1S,2S,5R)-N-[2-(2,3-dimethoxyphenyl)ethyl]-1-hydroxy-2-isopropyl-5-methyl-cyclohexanecarboxamide], the results for the half-maximal effective concentration (EC50) in test [1] and in test [2] were 0.362 µM and 0.786 µM, respectively.
The like results for `CC(C)[C@@H]1CC[C@@H](C)C[C@@]1(O)C(=O)NCCc1cccc(S(N)(=O)=O)c1` [Example 133, (1S,2S,5R)-1-hydroxy-2-isopropyl-5-methyl-N-[2-(3-sulfamoylphenyl)ethyl]cyclohexanecarboxamide] were, in that order, 0.0722 µM and 0.14 µM.
With `CC(C)[C@@H]1CC[C@@H](C)C[C@@]1(O)C(=O)NCC1CCOc2ccccc21` (stereo partly drawn) [Example 103, (1S,2S,5R)—N-(chroman-4-ylmethyl)-1-hydroxy-2-isopropyl-5-methylcyclohexane-1-carboxamide], the values for the EC50 in test [1] and in test [2] were 0.0149 µM and 0.0188 µM, respectively.
The corresponding values for `CC(C)[C@@H]1CC[C@@H](C)C[C@@]1(O)C(=O)NCC1(O)CCc2ccccc21` (single isomer, unassigned) [Example 176] are 0.0013 µM and 0.0011 µM.
As for `CC(C)[C@@H]1CC[C@@H](C)C[C@@]1(O)C(=O)NC1CCOC1=O` (stereo partly drawn) [Example 112, (1S,2S,5R)-1-hydroxy-2-isopropyl-5-methyl-N-(2-oxotetrahydrofuran-3-yl)cyclohexane-1-carboxamide], the figures for the EC50 in test [1] and in test [2] were 0.892 µM and 1.58 µM, respectively.
The corresponding values for `CC(C)[C@@H]1CC[C@@H](C)C[C@@]1(O)C(=O)NCCc1ccc(O)c([N+](=O)[O-])c1` [Example 166, (1S,2S,5R)-1-hydroxy-N-[2-(4-hydroxy-3-nitro-phenyl)ethyl]-2-isopropyl-5-methyl-cyclohexanecarboxamide] are 0.0152 µM and 0.0166 µM.
Turning to `CC(C)[C@@H]1CC[C@@H](C)C[C@@]1(O)C(=O)N[C@@H](CO)Cc1ccccc1` [Example 47, (1S,2S,5R)-1-hydroxy-N-((2R)-1-hydroxy-3-phenylpropan-2-yl)-2-isopropyl-5-methylcyclohexane-1-carboxamide], the concentration for a half-maximal effect (EC50) in test [1] is 0.586 µM; in test [2] it was 0.641 µM.
With `CC(C)[C@@H]1CC[C@@H](C)C[C@@]1(O)C(=O)NC[C@@H](NC(=O)[C@@H](C)N)c1ccccc1` [Example 62, (1S,2S,5R)—N—((S)-2-((R)-2-aminopropanamido)-2-phenylethyl)-1-hydroxy-2-isopropyl-5-methylcyclohexane-1-carboxamide], the values for the EC50 in test [1] and in test [2] were 0.0023 µM and 0.0016 µM, respectively.
The corresponding values for `CC(C)[C@@H]1CC[C@@H](C)C[C@@]1(O)C(=O)NCC1OC(=O)c2ccccc21` (mixture of isomers) [Example 17, (1S,2S,5R)-1-hydroxy-2-isopropyl-5-methyl-N-(((1RS)-3-oxo-1,3-dihydroisobenzofuran-1-yl)methyl) cyclohexane-1-carboxamide] are 0.191 µM and 0.41 µM.
On to `COc1cc(CCNC(=O)[C@]2(O)C[C@H](C)CC[C@H]2C(C)C)ccc1O` [Example 114, (1S,2S,5R)-1-hydroxy-N-[2-(4-hydroxy-3-methoxy-phenyl)ethyl]-2-isopropyl-5-methyl-cyclohexanecarboxamide], for which the EC50 turned out to be 0.0282 µM in test [1] and 0.0598 µM in test [2].
The like results for `CC(C)[C@@H]1CC[C@@H](C)C[C@@]1(O)C(=O)NCC(=O)Oc1cc(O)cc(O)c1` [Example 76, 3,5-dihydroxyphenyl ((1S,2S,5R)-1-hydroxy-2-isopropyl-5-methylcyclohexane-1-carbonyl)glycinate] were, in that order, 0.365 µM and 0.501 µM.
The corresponding values for `COc1cccc(C(F)(F)CNC(=O)[C@]2(O)C[C@H](C)CC[C@H]2C(C)C)c1` [Example 188, (1S,2S,5R)—N-[2,2-difluoro-2-(3-methoxyphenyl)ethyl]-1-hydroxy-2-isopropyl-5-methyl-cyclohexanecarboxamide] are 0.0241 µM and 0.0762 µM.
In the case of `COc1ccc(CCNC(=O)[C@]2(O)C[C@H](C)CC[C@H]2C(C)C)cc1O` [Example 126, (1S,2S,5R)-1-hydroxy-N-[2-(3-hydroxy-4-methoxy-phenyl)ethyl]-2-isopropyl-5-methyl-cyclohexanecarboxamide], the EC50 in test [1] came out at 0.0257 µM; in test [2], 0.0925 µM.
`COc1cc(CCNC(=O)[C@]2(O)C[C@H](C)CC[C@H]2C(C)C)cc(OC)c1O` [Example 130, (1S,2S,5R)-1-hydroxy-N-[2-(4-hydroxy-3,5-dimethoxy-phenyl)ethyl]-2-isopropyl-5-methyl-cyclohexanecarboxamide]: the EC50 is 0.185 µM in test [1] and 0.433 µM in test [2].
